Test results: patent US8859777B2, “4-fluoro-4-arylpiperdin-1-yl derivatives as mu opioid function moderators” (priority 2010, dated 2014)
Structures can show the parent of a compound that is named as a salt.

Molecular target: T1, Mu opioid receptor (Homo sapiens, UniProt P35372)
T1 construct: expressed in transfected cells; host or cells: HEK-293
Test: Affinity for the Mu opioid receptor, [3H]diprenorphine radioligand binding
Details: not given
Experimental: Compounds of the invention were assayed for affinity for the Mu opioid receptor using the methodology described in Zhang et al. (J. Pharmacol. Exp. Ther., (1998) 286: 136-141). Compounds were assessed in human recombinant (HEK-293) cells using tritium labeled diprenorphine (0.4 nM) as the specific determinant and non-specific binding was assayed with naltrexone (1 μM). Cells were incubated for 120 minutes at 22° C. before isolation and radioactivity determination by scintillation counting. The IC50 values (concentration causing a half-maximal inhibition of control specific binding) and Hill coefficients (nH) were determined by non-linear regression analysis of the competition curves generated with mean replicate values using Hill equation curve fitting (Y=D+[(A−D)/(1+(C/C50)^nH)], where Y=specific binding, D=minimum specific binding, A=maximum specific binding, C=compound concentration, C50=IC50, and nH=slope factor). The inhibition constants (Ki) were calculated using the Cheng-Prusoff equation (Ki=IC50/(1+(L/KD)), where L=concentration of radioligand in the assay, and KD=affinity of the radioligand for the receptor). Each data point was obtained in duplicate and results are the mean value.

T1 sequence (P35372 whole entry): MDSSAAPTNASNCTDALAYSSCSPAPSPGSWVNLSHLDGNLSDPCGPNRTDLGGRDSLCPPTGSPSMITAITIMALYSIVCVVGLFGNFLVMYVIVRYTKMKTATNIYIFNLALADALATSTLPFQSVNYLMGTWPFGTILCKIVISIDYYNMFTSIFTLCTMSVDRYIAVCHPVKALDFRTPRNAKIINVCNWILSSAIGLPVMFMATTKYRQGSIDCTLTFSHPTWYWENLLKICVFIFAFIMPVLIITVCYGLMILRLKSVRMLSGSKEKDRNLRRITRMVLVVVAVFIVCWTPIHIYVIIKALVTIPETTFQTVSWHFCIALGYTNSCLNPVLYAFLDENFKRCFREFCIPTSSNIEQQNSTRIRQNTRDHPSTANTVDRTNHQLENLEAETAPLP

| SMILES | Ki |
| --- | --- |
| CC1CN(CC(Cc2ccccc2)(Cc2ccccc2)C(=O)O)CCC1(F)c1cccc(O)c1 (centres unmarked) [Example 15, 2,2-Dibenzyl 3-[4-(3-hydroxyphenyl)-4-fluoro-3-methylpiperidin-1-yl]propionic Acid Hydrochloride] | < 100 nM |
| Cc1ccc(S(=O)(=O)Nc2cccc(C3(F)CCN(CCOc4ccccc4)CC3)c2)cc1 [Example 17, N-{3-[4-Fluoro-1-(2-phenoxyethyl)piperidin-4-yl]phenyl}-4-methyl-benzenesulfonamide Hydrochloride] | 100 to 1000 nM |
| Oc1cccc(C2(F)CCN(CCCC3CCCCC3)CC2)c1 [Example 11, 1-(3-Cyclohexylpropyl)-4-fluoro-4-(3-hydroxyphenyl)piperidine Hydrochloride] | < 100 nM |
| CC1CN(CCOc2ccccc2)CCC1(F)c1cccc(O)c1 (centres unmarked) [Example 13, 4-fluoro-4-(3-Hydroxyphenyl)-3-methyl-1-(2-phenoxyethyl)piperidine Hydrochloride] | < 100 nM |

Same assay, conditions: human recombinant (HEK-293) cells; tritium labeled diprenorphine 0.4 nM; non-specific binding with naltrexone 1 μM; 120 minutes at 22° C.; mean of duplicates; read-out: Affinity

| SMILES | Ki |
| --- | --- |
| O=C(O)C(Cc1ccccc1)(Cc1ccccc1)CN1CCC(F)(c2ccc(Cl)cc2)CC1 [Example 5, 2,2-Dibenzyl-3-[4-(4-chlorophenyl)-4-fluoropiperidin-1-yl]propionic acid Hydrochloride] | 1000 to 10000 nM |
| CC(C)(C)NC(=O)Nc1cccc(C2(F)CCN(CCOc3ccccc3)CC2)c1 [Example 19, 1-tert-Butyl-3-{3-[4-fluoro-1-(2-phenoxyethyl)-piperidin-4-yl]phenyl}-urea] | 1000 to 10000 nM |
| CS(=O)(=O)Nc1cccc(C2(F)CCN(CCOc3ccccc3)CC2)c1 [Example 18, N-{3-[4-Fluoro-1-(2-phenoxyethyl)piperidin-4-yl]phenyl}methane-sulfonamide Hydrochloride] | 1000 to 10000 nM |
| FC1(c2ccc(Cl)cc2)CCN(CCC(c2ccccc2)c2ccccc2)CC1 [Example 1, 4-(4-Chlorophenyl)-1-(3,3-diphenylpropyl)-4-fluoropiperidine Hydrochloride] | 1000 to 10000 nM |
